In patent US11661404B2, “Prodrug compounds activated by AKR1C3 and their use for treating hyperproliferative disorders” (priority 2018, dated 2023):

Tested on: mixed HCT116 colon cancer MCLs containing 5% AKR1C3 over-expressing cells
Assay: High cell density multicellular layer (MCL) assay, bystander cell killing
Format: cell-based, human
Experimental: The MCL model utilised for this evaluation consisted of AKR1C3 overexpressing (activator) cells or non-AKR1C3 expressing (target) cells or a mixture of these two cell types grown in a ratio of 5:95. The mixture of the two distinct cell populations enabled the determination of the extent of the transfer of cytotoxic metabolites from the activator cell to the target cell population.
Plating efficiencies were calculated as the fraction of colonies formed relative to the number of cells seeded. The compound concentrations for 10% survival (C10) of target cells grown without activators (T), targets in co-culture (Tc) and activators in co-culture (Ac) was determined by interpolation. Bystander effect efficiency (BEE) was calculated as (Log C10T−Log C10Tc)/(Log C10T−Log C10Ac), where BEE is the measure of cytotoxic metabolite transfer. In contrast to PR-104A, preferred compounds of the invention have a minimal BEE, reducing off-target side effects from ablation of neighbouring non-AKR1C3 expressing cells.
Millicell-CM membrane inserts were coated in calf-skin collagen type III. The collagen solution was prepared dissolving in sterile 0.01 N HCl to a concentration of 3 mg/mL. The collagen solution was diluted (1:5) in sterile 60% ethanol and 100 μL of this solution was used to coat the membrane inserts and left overnight in a sterile environment to dry.
Prior to adding cells, the inserts were sterilised in 70% ethanol and left to aerate in a sterile environment in order for the ethanol to evaporate. A sterile polyethylene foam ring was placed around each insert to enable subsequent floatation. Single cell suspensions of 1×10^6 cells in a volume of 500 μL was added to each insert. When mixtures of cells were required, 1×10^6 cells of the mixed cell suspension (in 500 μL) were added to each insert. The type of mixed MCLs used in experiments consisted of 95% HCT116^NeoR and 5% HCT116^AKR1C3 cells. The HCT116^NeoR ells were used in this mixture as an AKR1C3 negative cell line which can subsequently be grown in selective medium containing Geneticin (G418), and which enabled discrimination with the AKR1C3 positive cell line (which can be grown in selective medium containing puromycin). The inserts containing cells were placed in a sterile screw-top plastic jar containing 300 mL of α-MEM+10% v/v FBS+1% PSG, with a maximum of 6 inserts in a jar. The inserts were left floating in the medium for 4 hours in a humidified incubator (37° C., 5% CO2) to enable cells to adhere to the collagen coat and then submerged in the medium with a sterile stainless steel grid. Cells were left to grow and form MCLs on the inserts for a period of 3 days by placing the jars in a 37° C. water bath with continuous magnetic stirring of the medium.
Three days after growth of cells as MCLs in inserts, each insert was inspected with an inverted phase contrast microscope to ensure uniform growth of cells. Suitable MCLs were transferred to 25 mL glass vessels containing 10 mL of medium (α-MEM+10% v/v FBS+1% PSG) with the required drug concentrations. Each insert in the glass vessel was held by a stainless steel loop attached to the lid. The vessels were placed in a 37° C. water bath. Ports on the lid of each bottle enabled gassing with the required gas phase. The glass vessels containing the MCL inserts and drug were left in the 37° C. water bath for 5 hours with continuous gassing and magnetic stirring of medium. The gas phase used was 5% CO2:95% O2, with the high oxygen concentration used to minimise bioreductive drug activation by endogenous one-electron reductases.
After the 5 hour incubation, each insert was trypsinised in 0.07% trypsin in PBS for 10 minutes at 37° C. to dissociate the MCL into a single cell suspension. The dissociated cells were incubated for a further 10 minutes in α-MEM containing 10% FBS and 100 μg/ml DNAase I. Cells were then counted on a Z2 Coulter® Particle Count and Size Analyzer and resuspended in fresh medium. […]

[1] = 95% HCT116^NeoR : 5% HCT116^AKR1C3, 5 hours

CN1CCN(S(=O)(=O)c2cc([N+](=O)[O-])ccc2N(CCOS(C)(=O)=O)CCOS(C)(=O)=O)CC1 [Compound 641, ((2-((4-methylpiperazin-1-yl)sulfonyl)-4-nitrophenyl)azanediyl)bis(ethane-2,1-diyl) dimethanesulfonate]
shift in the C10 from T to Tc (5% AKR1C3-positive cells): 9 fold
activators in co-culture C10 (Ac) [1]: 0.0054 µM
targets in co-culture C10 (Tc) [1]: 1.27 µM
AKR1C3-positive HCT116 cells clonogenically sterilised (concentrations 0.002 μM to 0.2 μM, FIG. 8): at least 99.9%
sensitivity of AKR1C3 expressing cells vs AKR1C3-negative cells to clonogenic cell kill (T/Ac) (high cell density): 2055 fold
target cell C10 (T), concentration for 10% survival (target cells grown without activators, 5 hours exposure, clonogenic survival): 11.1 µM
